Laboratory results published in patent publication US20260042764A1, “COMPOSITIONS AND METHODS FOR INHIBITION OF KRAS” (TheRas, Inc., priority 2022, published 2026).

Experiments:
[1] = target: T1, Avi-KRAS G12D (1-169) GppNHp/RAF1 RBD-3xFLAG (52-151) (Homo sapiens, UniProt P01116, G12D); test: Raf1-KRAS G12D-GppNHP disruption HTRF assay (Biological Example 1); assay type: binding; settings: KRAS G12D-GppNHp/RAF1 RBD HTRF
T1 construct: Avi-KRAS G12D (1-169)
Method in brief: (§1)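 Compound disruption of KRAS-GppNHp/RAF1 RBD binding read by HTRF after two sequential 1 h room-temperature incubations (protein mix, then detection reagents), shaken at 700 rpm. Buffer Tris pH 7.5 with MgCl2, BSA, Tween and 10% DMSO; results given as percent activity relative to DMSO (100%).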

[2] = target: T2, Avi-KRAS WT (1-169) GppNHp/RAF1 RBD-3xFLAG (52-151) (Homo sapiens, UniProt P01116); test: Raf1-KRAS WT-GppNHP disruption HTRF assay (Biological Example 1); assay type: binding; settings: KRAS WT-GppNHp/RAF1 RBD HTRF
T2 construct: Avi-KRAS WT (1-169)
T2 sequence (P01116 1-169 isoform P01116-2): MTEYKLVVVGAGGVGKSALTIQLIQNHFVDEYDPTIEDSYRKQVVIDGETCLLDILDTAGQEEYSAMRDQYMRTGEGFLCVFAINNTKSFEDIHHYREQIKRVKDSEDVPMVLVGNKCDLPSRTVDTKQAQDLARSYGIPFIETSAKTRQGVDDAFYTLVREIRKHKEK
Method in brief: as §1

[3] = target: T3, Avi-KRAS WT (2-169) GTP/RAF1 RBD-3xFLAG (51-131) (Homo sapiens, UniProt P01116); test: Raf1-KRAS WT-GTP disruption HTRF assay (Biological Example 3); assay type: binding; settings: KRAS WT, GTP-loaded
T3 construct: Avi-KRAS WT (2-169)
T3 sequence (P01116 2-169 isoform P01116-2): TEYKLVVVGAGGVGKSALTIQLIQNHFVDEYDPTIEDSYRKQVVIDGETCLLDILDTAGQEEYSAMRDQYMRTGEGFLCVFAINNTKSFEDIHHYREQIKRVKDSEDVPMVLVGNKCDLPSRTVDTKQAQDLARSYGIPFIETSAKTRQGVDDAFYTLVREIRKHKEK
Method in brief: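 An HTRF assay measured disruption of 50 nM Avi-KRAS (2-169)-GTP (WT, G12C, G12D or G12V) bound to RAF1 RBD-3xFLAG (51-131). Buffer was Tris pH 7.5 with 5 mM MgCl2 and 10% DMSO. Compounds (30–0.005 μM, 3-fold, 10 points) were incubated 1 h at room temperature, and activity is given as % of DMSO.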

SW620 cells (KRAS G12V) = test: Cell-based pERK HTRF assay in SW620 cell (Biological Example 4); settings: Homo sapiens, SW-620, SW620 (KRAS G12V) cells
Method in brief: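 SW620 (KRAS G12V) cells seeded at 3×10^4/well in RPMI, 10% FBS, then treated next day for 4 h with a 9-point half-log series from 1 μM top (0.25% DMSO). Lysates analyzed for pERK by HTRF (Eu cryptate/d2 antibodies, 4–24 h at room temperature), excitation 320 nm, emission 615 nm.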

T1 sequence (P01116 1-169 isoform P01116-2 G12D): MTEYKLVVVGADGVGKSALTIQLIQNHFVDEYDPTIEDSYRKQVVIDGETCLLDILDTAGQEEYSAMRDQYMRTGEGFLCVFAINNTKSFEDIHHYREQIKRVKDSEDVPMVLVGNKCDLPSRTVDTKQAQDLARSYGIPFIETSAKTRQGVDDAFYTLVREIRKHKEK

SMILES	IC50 [1]	IC50 [2]	IC50 [3]	IC50 (SW620 cells (KRAS G12V))	IC50 (SW620 cells (KRAS G12V); pERK HTRF)
CCN(c1nc(OC[C@@]23CCCN2C[C@H](F)C3)nc2c(F)c(-c3ccc(F)c4sc(N)c(C#N)c34)c(C(F)(F)F)cc12)[C@@H]1C[C@@H](C)N(C(C)=O)C1 (atropisomer, axis not shown) [Compound 527]	100 to 1000 nM	100 to 1000 nM	100 to 1000 nM	< 100 nM	< 100 nM
CCN(c1nc(OC[C@@]23CCCN2C[C@H](F)C3)nc2c(F)c(-c3ccc(F)c4sc(N)c(C#N)c34)c(C(F)(F)F)cc12)[C@@H]1C[C@@H]2CCC(=O)N2C1 [Compound 511]	100 to 1000 nM	100 to 1000 nM	100 to 1000 nM	< 100 nM	< 100 nM
CN(C)C(=O)[C@@H]1CC[C@@H](N(C)c2nc(OC[C@@]34CCCN3C[C@H](F)C4)nc3c(F)c(-c4ccc(F)c5sc(N)c(C#N)c45)c(C(F)(F)F)cc23)C1 (atropisomer, axis not shown) [Compound 512]	100 to 1000 nM	100 to 1000 nM	100 to 1000 nM	< 100 nM	< 100 nM
CCC(=O)N1C[C@H](N(CC)c2nc(OC[C@@]34CCCN3C[C@H](F)C4)nc3c(F)c(-c4ccc(F)c5sc(N)c(C#N)c45)c(C(F)(F)F)cc23)C[C@@H]1C (atropisomer, axis not shown) [Compound 533]	100 to 1000 nM	100 to 1000 nM	100 to 1000 nM	< 100 nM	< 100 nM
CCN(c1nc(OC[C@@]23CCCN2C[C@H](F)C3)nc2c(F)c(-c3ccc(F)c4sc(N)c(C#N)c34)c(C(F)(F)F)cc12)[C@@H]1CC(=O)N(C)C1 [Compound 520]	100 to 1000 nM	100 to 1000 nM	100 to 1000 nM	< 100 nM	< 100 nM
CCN(c1nc(OC[C@@]23CCCN2C[C@H](F)C3)nc2c(F)c(-c3ccc(F)c4sc(N)c(C#N)c34)c(C(F)(F)F)cc12)C1C[C@@H](C)N(C(=O)C2CC2)C1 (some centres unmarked) [Compound 516]	< 100 nM	100 to 1000 nM	100 to 1000 nM	< 100 nM	< 100 nM
CCN(c1nc(OC[C@@]23CCCN2C[C@H](F)C3)nc2c(F)c(-c3ccc(F)c4sc(N)c(C#N)c34)c(C(F)(F)F)cc12)[C@H]1CCN(C(=O)c2ccon2)C1 (atropisomer, axis not shown) [Compound 554]	< 100 nM	< 100 nM	100 to 1000 nM	< 100 nM	< 100 nM

More lines, now with the values ahead:

IC50 [1]	IC50 [2]	IC50 [3]	IC50 (SW620 cells (KRAS G12V))	IC50 (SW620 cells (KRAS G12V); pERK HTRF)	SMILES
< 100 nM	< 100 nM	100 to 1000 nM	< 100 nM	< 100 nM	CCN(c1nc(OC[C@@]23CCCN2C[C@H](F)C3)nc2c(F)c(-c3ccc(F)c4sc(N)c(C#N)c34)c(C(F)(F)F)cc12)[C@H]1C[C@H](C)N(C(=O)COC)C1 (atropisomer, axis not shown) [Compound 538]
< 100 nM	< 100 nM	≤ 100 nM	< 100 nM	< 100 nM	CCN(c1nc(OC[C@@]23CCCN2C[C@H](F)C3)nc2c(F)c(-c3ccc(F)c4sc(N)c(C#N)c34)c(C(F)(F)F)cc12)[C@H]1C[C@H]2COC(=O)N2C1 (atropisomer, axis not shown; (aS)) [Compound 518, 2-amino-4-((S)-4-(ethyl((6S,7aS)-3-oxotetrahydro-1H,3H-pyrrolo[1,2-c]oxazol-6-yl)amino)-8-fluoro-2-(((2R,7aS)-2-fluorotetrahydro-1H-pyrrolizin-7a(5H)-yl)methoxy)-6-(trifluoromethyl)quinazolin-7-yl)-7-fluorobenzo[b]thiophene-3-carbonitrile]
< 100 nM	< 100 nM	100 to 1000 nM	< 100 nM	< 100 nM	CCN(c1nc(OC[C@@]23CCCN2C[C@H](F)C3)nc2c(F)c(-c3ccc(F)c4sc(N)c(C#N)c34)c(C(F)(F)F)cc12)[C@@H]1CC(=O)N(C2CC2)C1 [Compound 537]
